Test results published in patent US10905782B2, “Compositions for enhancing transport of molecules into cells” (priority 2003, dated 2021).

Tests used:
[1] = tested on: 705 splice site (luciferase gene interrupted by a human β-globin intron mutated at nucleotide 705); test: pLuc/705 splice correction assay: luciferase production in HeLa pLuc/705 cells; assay type: cell-based; details: splice-correction assay monitored over time
Method: The data described below was obtained by targeting a β-globin splice correction sequence fused to luciferase.
Other cell lines were obtained from ATCC (Manassas, Va.). […] All assays were carried out with exponentially growing cells in culture media containing 10% fetal bovine serum (FBS) unless otherwise specified.
This assay measures the ability of steric blocking oligomers to enter cells and nuclei, block incorrect splicing of pre-mRNA, and thus cause expression of a reporter gene. It avoids the confusion of cytotoxicity with activity that can affect down-regulation assays, as cells must be able to carry out RNA processing and translation to produce a signal. Because oligomers must enter cells and cell nuclei to produce a signal in the assay, it is very useful for measuring uptake and effectiveness of delivery moieties.
The time course of the uptake of various transporter-PMO-fluorescein conjugates, as described above, in HeLa pLuc/705 cells was studied by fluorescence spectroscopy. Experiments were generally run in triplicate. According to the general procedure, culture medium containing the test substance at a specified concentration was added to HeLa pLuc/705 cells plated in a 48-well plate. After incubation, at each time point, the cells were washed with PBS three times, and the cell lysate was collected as described under “Fluorometry”, above. The amount of functional luciferase produced was determined by mixing 30 μl of cell lysate and 50 μl of Luciferase Assay Reagent (LAR) (Promega, Wis.) and measuring the light production using a Flx 800 microplate fluorescence/luminescence reader (Bio-tek, Vermont). The relative light units were normalized to μg of protein determined by the bicinchoninic acid (BCA) method, following the manufacturer's procedure (Pierce, Ill.).

[2] = tested on: HeLa pLuc705 derived from HeLa S3, HeLa, NIH3T3, and Jurkat; test: Cellular uptake by fluorescent microscopy in live cells; assay type: cell-based
Method: HeLa pLuc/705 (Kang, Cho et al. 1998) is a HeLa S3 cell line stably transfected with a plasmid carrying the luciferase coding sequence interrupted by a mutated human β-globin intron 2 (Gene Tools, Philomath, Oreg.). Other cell lines were obtained from ATCC (Manassas, Va.). The PMO's were 3′-labeled with fluorescein as described in Example 1. To avoid artifacts, all fluorescent images were taken from live cells, and no fixative agent or mounting media were used.
Cells were plated onto a 48-well plate. The next day the conditioned medium was removed and the test substances in fresh medium were added to the wells. After incubation, the cells were washed with phosphate-buffered saline (PBS) three times and visualized directly in the culture medium with a Nikon Diaphot 300 inverted microscope. Images were captured with an Olympus digital camera connected to a computer using MagnaFire software (Optronics, Goleta, Calif.).

HeLa pLuc705 cells = test: Fluorometry: association (adsorption) of fluorescein-labeled conjugate with cells; assay type: cell-based, human
Method: HeLa pLuc/705 cells plated in a 48 well plate were treated with medium containing test substance. After incubation, cells were washed with PBS three times.
To measure the sum of membrane-bound and internalized fluorescence, cells were lysed directly in the wells by addition of 100 μl of cell lysis buffer (Promega, Madison, Wis.) to each well. Cell lysates were collected. The total fluorescence was determined by mixing 20 μl of cell lysate and 80 μl of 0.1 M Na2CO3 (pH 11) and measuring with an Flx 800 microplate fluorescence-luminescence reader with excitation at 485 nm and emission at 524 nm.
To measure internalized conjugate, the membrane-bound conjugate was removed by trypsinization, as follows. Trypsin (100 μl, 10%, Hyclone, Logan, Utah) was added to each well and incubated for 6 minutes at 37° C., followed by addition of 300 μl of culture media. The cells were spun down and washed with PBS, then lysed with 100 μl cell lysis buffer. The fluorescence of the cell lysate was measured as described above.

trypsin = test: Degradation of conjugate by trypsin; assay type: in vitro ADME; details: data not shown

Substance: R9F2C-PMO: covalent conjugate of PMO 705 and transport peptide R9F2 via cysteine; fluorescein-labeled in uptake studies (chain RRRRRRRRRFFC; antisense cctcttacctcagttaca; cysteine linkage; PMO; fluorescein; synthetic transport peptide; synthetic oligomer)
- incubation time after which luciferase was produced [1]: 120 min
- pattern of fluorescence ([2]; HeLa S3 cells): less intense cytosolic diffuse fluorescence
- pattern of fluorescence ([2]; HeLa cells): mostly diffused fluorescence
- location of fluorescence in cells ([2]; HeLa, NIH3T3 or HeLa pLuc/705 cells, 20 minutes treatment, DHE nuclear stain): Diffuse green fluorescence was seen in both cytoplasm and nucleus
- pattern of fluorescence ([2]; Jurkat cells): lowest level of fluorescence
- pattern of fluorescence ([2]; NIH3T3 cells): very bright and diffused cytosolic and nuclear fluorescence
- cells in which fluorescence was observed ([2]; all four cell lines, live cells): 100%
- fluorescence of cells incubated at 37° C. compared with 17° C. (HeLa pLuc705 cells; 0.1 to 5 μM, 70 minutes): similar
- time at which cell fluorescence reached maximum intensity (HeLa pLuc705 cells; HeLa pLuc705 cells, 1 μM, 900 minute study period): 30 to 45 min
- adsorption with increasing concentration (HeLa pLuc705 cells; increase between 0.1-1 μM, not between 1-5 μM): saturable
- sensitivity to degradation by trypsin (trypsin): sensitive to degradation by trypsin
